How the values were obtained:
[1] = Octanol-water partition coefficient, log D of the compound at pH 7.4; assay type: physicochemical
[2] = Intrinsic clearance in dog liver microsomes; assay type: ADME, Canis lupus familiaris
[3] = Dissociation constant, pKa of the compound; assay type: physicochemical
[4] = Intrinsic clearance in human hepatocytes assessed as 10^6 cells; assay type: ADME, cell-based, Hepatocyte; conditions: read-out: CLH
[5] = Intrinsic clearance in human liver microsomes; assay type: ADME; conditions: read-out: CLH
[6] = Intrinsic clearance in rat liver microsomes; assay type: ADME; conditions: read-out: CLH

logD [1] | microsomal CLint [2] | pKa [3] | hepatocyte CLint [4] | microsomal CLint [5] | microsomal CLint [6] | SMILES
0.1 | – | – | – | – | – | Nc1nc(Cc2ccccc2)nc2c1CCNCC2
0.7 | 114 µL/min/mg | 8.6 | 3.4 µL/min/1e6 cells | 16 µL/min/mg | 329 µL/min/mg | CNc1nc(Cc2ccccc2)nc2c1CCNC[C@@H]2C
0.7 | – | – | – | – | – | CNc1nc(Cc2ccccc2)nc2c1CCNC[C@H]2C

— ChEMBL document CHEMBL3286089, “Multiparameter optimization in CNS drug discovery: design of pyrimido[4,5-d]azepines as potent 5-hydroxytryptamine 2C (5-HT₂C) receptor agonists with exquisite functional selectivity over 5-HT₂A and 5-HT₂B receptors” (J Med Chem, 2014)
